Values quoted from earlier work in paper PMC13472183 (Journal of drug delivery science and technology, 2022).

Conditions: previous reported value, without the EDA modification

Substance: NH2-(VPGFG)6G-(GPO)7GG-CONH2 [F6-GPO7]
- Tm (triple helix melting temperature): 50 °C
